Data: US20120122843A1, “Compounds and Their Use for Treatment of Amyloid Beta-Related Diseases” (ASTRAZENECA AB, priority 2010, published 2012)

Assays:
Aβtotal = assay: Total Aβ release from HEK cells stably expressing APPswe (MSD, 6E10 and 4G8 antibodies); assay type: cell-based; details: Homo sapiens, HEK293, 4-6 h incubation with test compound, total Aβ secreted to cell medium
Procedure: The level of activity of the compounds on Aβ formation was tested using the following method:
Compounds were diluted in 100% DMSO and stored at […] prior to use. Human Embryonic Kidney (HEK) cell line stably expressing APP with the Swedish mutation (APPswe) were cultured using Dulbecco's Modified Eagles medium (DMEM) supplied with […] glucose, Na-pyruvate and GlutaMAX with 10% FBS, 100 U/ml penicillin-streptomycin (PEST) respectively, 1× non-essential amino acids (NEAA), […] Hepes, 100 μg/ml Zeocine. Cells at about 80% confluence were washed with PBS, detached from culture flasks using 1× Trypsin/EDTA diluted in PBS, re-suspended in cell media and plated in 384-well poly-d-lysine coated cell culture plates at about 10000-15000 cells/well, in 25 μL cell media. Optionally, cryo-preserved cells (frozen and stored at −140° C. in 90% cell media and 10% DMSO) were thawed, washed and plated as above. Next the cells were incubated for 15-24 h at 37° C. and 5% CO2, after which cell medium was changed. Fresh medium containing test compound diluted ×200 from prepared compound plate was added to the cells before further incubation for 4-6 hours at 37° C. and 5% CO2. After incubation with test compound the amount of Aβ peptides, including Aβ42, Aβ40, Aβ39, Aβ38 and Aβ37, as well as total Aβ levels, secreted to cell medium was analyzed using the electrochemiluminescence assay technology from Meso Scale Discovery (MSD), in combination with specific antibodies raised against the different Aβ peptides. Aβ42, Aβ40 and Aβ38 antibodies were purchased from MSD and Aβ37 and Aβ39 were made in house. Total Aβ was measured using a combination of 6E10 and 4G8 anti Aβ antibodies from MSD. Potential cytotoxic effects of the compounds were usually assayed by measuring the ATP content (ViaLight) from cell lysate.

Notch = assay: Release and translocation of Notch intracellular domain into the nucleus, HEK/AENotch cells (NICD immunostaining, ImageXpress); assay type: cell-based, Human; details: 3 μM Lactacystin, 4-6 h incubation, nucleus/cytosol NICD fluorescence ratio
Procedure: The level of activity of the compounds on release and translocation of Notch intracellular domain into the cell nucleus was tested using the following method:
Compounds were diluted in 100% DMSO and stored at […] prior to use. Human Embryonic Kidney cell line overexpressing Notchl-E-human-myc construct (referred to as HEK/AENotch) were cultured in T75 cm^2 or T225 cm^2 cell culture flasks using Dulbecco's Modified Eagles medium (DMEM) supplemented with […] glucose, Na-pyruvate and GlutaMAX with 10% FBS, 100 U/ml penicillin-streptomycin (PEST) respectively, 1× non-essential amino acids (NEAA), […] Hepes and 100 μg/ml Hygromycin. Cells at about 80% confluence were washed with PBS, detached from the flask bottom using 1× Trypsin/EDTA diluted in PBS, re-suspended in cell media and plated in 384-well plates at about 10000 cells/well, in 25 μL cell media. Optionally, cryo-preserved cells (frozen and stored at −140° C. in 90% cell media and 10% DMSO) were thawed, washed and plated as above. Next the cells were incubated for 15-24 h at 37° C. and 5% CO2, after which cell medium was replaced with fresh medium containing 3 μM Lactacystin and test compound diluted ×200 from prepared compound plate giving 0.5% final DMSO concentration, and the highest compound concentration typically 25 μM. Cells were then incubated 4-6 h with test compound before being fixed, washed and immunostained with NICD antibody (rabbit Notch 1 (C-20)). Image acquisition of cytosolic/membrane and nuclear fluorescence as well as subsequent analysis of the nucleus and cytosolic fluorescence ratio was carried out using ImageXpress. Potential cytotoxic effects of the compounds were usually assayed by analysis of nucleus area or cell number.

Aβ42 = Aβ42 release from HEK cells stably expressing APPswe (MSD electrochemiluminescence); assay type: cell-based, Human; details: 4-6 h incubation with test compound, Aβ42 secreted to cell medium
Outline: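 HEK cells stably expressing APPswe, plated 15–24 h, then given compound in fresh medium (diluted ×200 from compound plate) for 4–6 h at 37 °C. Secreted Aβ in medium measured by MSD electrochemiluminescence; total Aβ via 6E10 plus 4G8 antibodies, Aβ42 via specific antibody. Cytotoxicity checked by ATP content of lysate.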

[1] = Homo sapiens, HEK293, HEK cells expressing APPswe

Row | SMILES | IC50 (Aβtotal) | IC50 (Aβ42; [1]) | IC50 (Aβ42; HEK cells expressing APPswe) | IC50 (Notch; Homo sapiens) | IC50 (Notch)
1 | COc1nc(Nc2ccc3c(n2)OC(CCC(F)(F)F)CN(C)C3)ccc1-c1cnn(C)c1 (centres unmarked) [Example 27, [6-Methoxy-5-(1-methyl-1H-pyrazol-4-yl)-pyridin-2-yl]-[6-methyl-8-(3,3,3-trifluoro-propyl)-5,6,7,8-tetrahydro-9-oxa-1,6-diaza-benzocyclohepten-2-yl]-amine] | 8.72 µM | 0.012 µM | – | 16.3 µM | –
2 | COc1nc(Nc2ccc3c(n2)OC(CCC(F)(F)F)CN(C)C3)ccc1-n1cnc(C)c1 (single isomer, unassigned; (+)) [Example 61, (+)-[6-Methoxy-5-(4-methyl-imidazol-1-yl)-pyridin-2-yl]-[6-methyl-8-(3,3,3-trifluoro-propyl)-5,6,7,8-tetrahydro-9-oxa-1,6-diaza-benzocyclohepten-2-yl]-amine] | > 1 µM | 0.003 µM | – | > 25 µM | –
3 | COc1nc(Nc2ccc3c(n2)OC(CC(CF)CF)CN(C)C3)ccc1-n1cnc(C)c1 (centres unmarked) [Example 32, [8-(3-Fluoro-2-fluoromethyl-propyl)-6-methyl-5,6,7,8-tetrahydro-9-oxa-1,6-diaza-benzocyclohepten-2-yl]-[6-methoxy-5-(4-methyl-imidazol-1-yl)-pyridin-2-yl]-amine] | > 5 µM | 0.007 µM | – | > 7.9 µM | –
4 | COc1nc(Nc2ccc3c(n2)O[C@H](c2ccccc2)CN(C)C3)ccc1-c1cnc(C)o1 [Example 49, (2R)—N-[6-Methoxy-5-(2-methyloxazol-5-yl)-2-pyridyl]-4-methyl-2-phenyl-3,5-dihydro-2H-pyrido[3,2-f][1,4]oxazepin-8-amine] | 5.46 µM | 0.002 µM | – | 2.17 µM | –
5 | COc1nc(Nc2ccc3c(n2)OC(CC(CF)CF)CN(C)C3)ccc1-n1cnc(C)c1 (single isomer, unassigned; (+)) [Example 67, (+)-[8-(3-Fluoro-2-fluoromethyl-propyl)-6-methyl-5,6,7,8-tetrahydro-9-oxa-1,6-diaza-benzocyclohepten-2-yl]-[6-methoxy-5-(4-methyl-imidazol-1-yl)-pyridin-2-yl]-amine] | > 25 µM | 0.01 µM | – | – | 6.23 µM
6 | COc1nc(Nc2ccc3c(n2)OC(CC(CF)CF)CN(C)C3)ccc1-c1cnn(C)c1 (centres unmarked) [Example 31, [8-(3-Fluoro-2-fluoromethyl-propyl)-6-methyl-5,6,7,8-tetrahydro-9-oxa-1,6-diaza-benzocyclohepten-2-yl]-[6-methoxy-5-(1-methyl-1H-pyrazol-4-yl)-pyridin-2-yl]-amine] | 9.47 µM | 0.022 µM | – | > 7.9 µM | –
7 | COc1nc(Nc2ccc3c(n2)OC(CC(F)(F)F)CN(C)C3C)ccc1-c1cnn(C)c1 (single isomer, unassigned) [Example 33, N-(6-Methoxy-5-(1-methyl-1H-pyrazol-4-yl)pyridin-2-yl)-4,5-dimethyl-2-(2,2,2-trifluoroethyl)-2,3,4,5-tetrahydropyrido[3,2-f][1,4]oxazepin-8-amine] | > 5 µM | 0.008 µM | – | > 25 µM | –
8 | COc1nc(Nc2ccc3c(n2)OC(C2CC(F)(F)C2)CN(C)C3)ccc1-c1cnn(C)c1 (single isomer, unassigned) [Example 37, 2-(3,3-Difluorocyclobutyl)-N-(6-methoxy-5-(1-methyl-1H-pyrazol-4-yl)pyridin-2-yl)-4-methyl-2,3,4,5-tetrahydropyrido[3,2-f][1,4]oxazepin-8-amine] | > 1 µM | – | 0.004 µM | > 25 µM | –
9 | COc1nc(Nc2cc(C)c3c(n2)OC(C2CC2)CN(C)C3)ccc1-c1cnn(C)c1 (centres unmarked) [Example 13, 2-Cyclopropyl-N-(6-methoxy-5-(1-methyl-1H-pyrazol-4-yl)pyridin-2-yl)-4,6-dimethyl-2,3,4,5-tetrahydropyrido[3,2-f][1,4]oxazepin-8-amine] | – | 0.048 µM | – | > 5 µM | –
10 | COc1nc(Nc2ccc3c(n2)OC(C2CC2)CN(C)C3C)ccc1-c1cnn(C)c1 (single isomer, unassigned) [Example 18, 2-Cyclopropyl-N-(6-methoxy-5-(1-methyl-1H-pyrazol-4-yl)pyridin-2-yl)-4,5-dimethyl-2,3,4,5-tetrahydropyrido[3,2-f][1,4]oxazepin-8-amine] | – | – | 0.037 µM | – | > 7.9 µM
11 | COc1nc(Nc2ccc3c(n2)O[C@H](c2ccc(F)cn2)CN(C)C3C)ccc1-n1cnc(C)c1 (single isomer, unassigned; (-)) [Example 52] | – | 0.01 µM | – | 7.2 µM | –

Further lines, with some results ahead:

Row | IC50 (Aβtotal) | IC50 (Aβ42; [1]) | IC50 (Aβ42; HEK cells expressing APPswe) | SMILES | IC50 (Notch; Homo sapiens) | IC50 (Notch)
12 | 1.85 µM | 0.013 µM | – | COc1nc(Nc2ccc3c(n2)OC(c2nc(C)cs2)CN(C)C3)ccc1-n1cnc(C)c1 (centres unmarked) [Example 12, N-(6-Methoxy-5-(4-methyl-1H-imidazol-1-yl)pyridin-2-yl)-4-methyl-2-(4-methylthiazol-2-yl)-2,3,4,5-tetrahydropyrido[3,2-f][1,4]oxazepin-8-amine] | > 25 µM | –
13 | > 1 µM | 0.007 µM | – | COc1nc(Nc2ccc3c(n2)OC(CCC(F)(F)F)CN(C)C3)ccc1-n1cnc(C)c1 (centres unmarked) [Example 28, [6-Methoxy-5-(4-methyl-imidazol-1-yl)-pyridin-2-yl]-[6-methyl-8-(3,3,3-trifluoro-propyl)-5,6,7,8-tetrahydro-9-oxa-1,6-diaza-benzocyclohepten-2-yl]-amine] | > 25 µM | –
14 | 0.512 µM | – | 0.009 µM | COc1nc(Nc2ccc3c(n2)OC(CC(F)(F)F)CN(C)C3)ccc1-c1cnn(C)c1 (single isomer, unassigned; (+)) [Example 4, (+)-N-(6-Methoxy-5-(1-methyl-1H-pyrazol-4-yl)pyridin-2-yl)-4-methyl-2-(2,2,2-trifluoroethyl)-2,3,4,5-tetrahydropyrido[3,2-f][1,4]oxazepin-8-amine] | > 25 µM | –
15 | – | 0.046 µM | – | COc1nc(Nc2ccc3c(n2)OC(c2cc(C)ccn2)CN(C)C3)ccc1-c1cnn(C)c1 (centres unmarked) [Example 42, N-(6-Methoxy-5-(1-methyl-1H-pyrazol-4-yl)pyridin-2-yl)-4-methyl-2-(4-methylpyridin-2-yl)-2,3,4,5-tetrahydropyrido[3,2-f][1,4]oxazepin-8-amine] | > 25 µM | –
16 | – | – | 0.005 µM | COc1nc(Nc2ccc3c(n2)OC(CCC(F)(F)F)CN(C)C3)ccc1-n1cnc(C)c1 (single isomer, unassigned; (-)) [Example 62, (−)-[6-Methoxy-5-(4-methyl-imidazol-1-yl)-pyridin-2-yl]-[6-methyl-8-(3,3,3-trifluoro-propyl)-5,6,7,8-tetrahydro-9-oxa-1,6-diaza-benzocyclohepten-2-yl]-amine] | – | > 25 µM
17 | – | 0.225 µM | – | Cc1cn(-c2ccc(Nc3cc(C)c4c(n3)OC(CC(F)(F)F)CN(C)C4)nc2)cn1 (centres unmarked) [Example 1, 4,6-Dimethyl-N-(5-(4-methyl-1H-imidazol-1-yl)pyridin-2-yl)-2-(2,2,2-trifluoroethyl)-2,3,4,5-tetrahydropyrido[3,2-f][1,4]oxazepin-8-amine] | > 50 µM | –
18 | – | 0.073 µM | – | COc1nc(Nc2cc(C)c3c(n2)OC(C2CCCO2)CN(C)C3)ccc1-c1cnn(C)c1 (single isomer, unassigned) [Example 25, N-(6-Methoxy-5-(1-methyl-1H-pyrazol-4-yl)pyridin-2-yl)-4,6-dimethyl-2-(tetrahydrofuran-2-yl)-2,3,4,5-tetrahydropyrido[3,2-f][1,4]oxazepin-8-amine] | > 7.9 µM | –
